In ChEMBL document CHEMBL1142628, “Antineoplastic agents 430. Isolation and structure of cribrostatins 3, 4, and 5 from the republic of maldives cribrochalina species” (2000):
Calls of active or inactive are those of the source. The calls are words filed in the database; no cut-off is given here.

What was measured:
Neisseria gonorrhoeae = assay: Antibacterial activity against Neisseria gonorrhoeae ATCC 49226 by disk diffusion method; type: functional
Micrococcus luteus [1] = assay: Antibacterial activity against Micrococcus luteus Presque Isle 456 at 100 ug/disk by disk diffusion method; type: functional, organism-based
Candida albicans [2] = assay: Antifungal activity against Candida albicans ATCC 90028 at 100 ug/disk by disk diffusion method; type: functional, organism-based
Cryptococcus neoformans [3] = assay: Antifungal activity against Cryptococcus neoformans ATCC 90112 at 100 ug/disk by disk diffusion method; type: functional, organism-based
Enterobacter cloacae = assay: Antibacterial activity against Enterobacter cloacae ATCC 13047 at 100 ug/disk by disk diffusion method; type: functional, organism-based
Escherichia coli = assay: Antibacterial activity against Escherichia coli ATCC 25922 at 100 ug/disk by disk diffusion method; type: functional, organism-based
Staphylococcus aureus [4] = assay: Antibacterial activity against Staphylococcus aureus ATCC 29213 at 100 ug/disk by disk diffusion method; type: functional, organism-based
[5] = tested on: Stenotrophomonas maltophilia; assay: Antibacterial activity against Stenotrophomonas maltophilia ATCC 13637 at 100 ug/disk by disk diffusion method; type: functional, organism-based
Bacillus subtilis [6] = assay: Antibacterial activity against Bacillus subtilis Presque Isle 620 at 100 ug/disk by disk diffusion method; type: functional, organism-based
Enterococcus faecalis = assay: Antibacterial activity against Enterococcus faecalis ATCC 29212 at 100 ug/disk by disk diffusion method; type: functional, organism-based
Streptococcus pneumoniae [7] = assay: Antibacterial activity against Streptococcus pneumoniae ATCC 6303 at 100 ug/disk by disk diffusion method; type: functional, organism-based
Streptococcus pneumoniae [8] = assay: Antibacterial activity against penicillin-resistant Streptococcus pneumoniae isolate by disk diffusion method; type: functional
Micrococcus luteus [9] = assay: Antibacterial activity against Micrococcus luteus Presque Isle 456 by disk diffusion method; type: functional
Bacillus subtilis [10] = assay: Antibacterial activity against Bacillus subtilis Presque Isle 620 by disk diffusion method; type: functional
Candida albicans [11] = assay: Antifungal activity against Candida albicans ATCC 90028 by disk diffusion method; type: functional
Staphylococcus aureus [12] = assay: Antibacterial activity against Staphylococcus aureus ATCC 29213 by disk diffusion method; type: functional
Streptococcus pneumoniae [13] = assay: Antibacterial activity against Streptococcus pneumoniae ATCC 6303 by disk diffusion method; type: functional
Streptococcus pneumoniae [14] = assay: Antibacterial activity against invasive Streptococcus pneumoniae isolate by disk diffusion method; type: functional
[15] = tested on: Streptococcus sp. 'group A'; assay: Antibacterial activity against group A Streptococcus isolate at 100 ug/disk by disk diffusion method; type: functional, organism-based
Cryptococcus neoformans [16] = assay: Antifungal activity against Cryptococcus neoformans ATCC 90112 by disk diffusion method; type: functional

SMILES | MIC (Neisseria gonorrhoeae) | Activity (Micrococcus luteus [1]) | Activity (Candida albicans [2]) | Activity (Cryptococcus neoformans [3]) | Activity (Enterobacter cloacae) | Activity (Escherichia coli) | Activity (Staphylococcus aureus [4]) | Activity [5] | Activity (Bacillus subtilis [6]) | Activity (Enterococcus faecalis) | Activity (Streptococcus pneumoniae [7]) | MIC (Streptococcus pneumoniae [8]) | MIC (Micrococcus luteus [9]) | MIC (Bacillus subtilis [10]) | MIC (Candida albicans [11]) | MIC (Staphylococcus aureus [12]) | MIC (Streptococcus pneumoniae [13]) | MIC (Streptococcus pneumoniae [14]) | Activity [15] | MIC (Cryptococcus neoformans [16])
CC1=C(N)C(=O)c2c(ccnc2C)C1=O [CRIBROSTATIN 1] | 0.39 µg/disc | inactive | inactive | inactive | inactive | inactive | inactive | inactive | inactive | inactive | inactive |  |  |  |  |  |  |  |  | 
CCOC1=C(C)C(=O)c2cc(=O)n(C)cc2C1=O [CRIBROSTATIN 2] | 0.39 µg/disc |  |  |  | inactive | inactive |  | inactive |  | inactive |  | 25 µg/disc | 50 µg/disc | 25 µg/disc | 3.12 µg/disc | 12.5 µg/disc | 12.5 µg/disc | 50 µg/disc | inactive | 12.5 µg/disc
